Source: PubChem BioAssay AID248 (DTP/NCI, 2004)
Where “and” joins values, the source holds several entries; their conditions need not be identical. Equal entries are not always repeated. Inconclusive results and toxic doses are left out. Cut-off read from the data, not from the text of the source: active = T/C of 150% or more; inactive = T/C below 125%.

Tested on: L1210 leukemia ip in BDF1 mice, survival T/C
Experiment: NCI In Vivo Anticancer Drug Screen. Data for tumor model L1210 Leukemia (intraperitoneal) in B6D2F1 (BDF1) mice
Conditions: endpoint: mean survival time, higher = longer survival
In short: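 Survival endpoint. Drug-treated group vs vehicle group, expressed as T divided by C. Tumor passaged by transplantation.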

[1] = dose: 100.0 mg/kg/injection, schedule: Q01DX009 (ip), vehicle: saline
[2] = dose: 200.0 mg/kg/injection, schedule: Q01DX009 (ip), vehicle: saline
[3] = dose: 400.0 mg/kg/injection, schedule: Q01DX009 (ip), vehicle: saline
[4] = dose: 100.0 mg/kg/injection, schedule: Q04DX003 (ip), vehicle: saline with Tween-80
[5] = dose: 200.0 mg/kg/injection, schedule: Q04DX003 (ip), vehicle: saline with Tween-80
[6] = dose: 100.0 mg/kg/injection, schedule: Q01DX001 (ip), vehicle: saline with Tween-80
[7] = dose: 200.0 mg/kg/injection, schedule: Q01DX001 (ip), vehicle: saline with Tween-80
[8] = dose: 400.0 mg/kg/injection, schedule: Q01DX001 (ip), vehicle: saline with Tween-80
[9] = dose: 100.0 mg/kg/injection, schedule: Q01DX001 (ip), vehicle: Klucel (hydroxypropylcellulose) (HPC)
[10] = dose: 200.0 mg/kg/injection, schedule: Q01DX001 (ip), vehicle: Klucel (hydroxypropylcellulose) (HPC)
[11] = dose: 400.0 mg/kg/injection, schedule: Q01DX001 (ip), vehicle: Klucel (hydroxypropylcellulose) (HPC)
[12] = dose: 100.0 mg/kg/injection, schedule: Q01DX001 (ip), vehicle: carboxymethylcellulose (CMC)
[13] = dose: 200.0 mg/kg/injection, schedule: Q01DX001 (ip), vehicle: carboxymethylcellulose (CMC)
[14] = dose: 400.0 mg/kg/injection, schedule: Q01DX001 (ip), vehicle: carboxymethylcellulose (CMC)
[15] = dose: 100.0 mg/kg/injection, schedule: Q04DX002 (ip), vehicle: saline
[16] = dose: 200.0 mg/kg/injection, schedule: Q04DX002 (ip), vehicle: saline
[17] = dose: 400.0 mg/kg/injection, schedule: Q04DX002 (ip), vehicle: saline

Measured: T/C

CCOC(=O)CCN(CC)C(C)=O
inactive: [1] 93 % of control | dose: 100.0 mg/kg/injection, schedule: Q04DX003 (ip), vehicle: saline sonified 101 % of control | [2] 93 % of control | dose: 200.0 mg/kg/injection, schedule: Q04DX003 (ip), vehicle: saline sonified 95 % of control | [3] 93 % of control | dose: 400.0 mg/kg/injection, schedule: Q04DX003 (ip), vehicle: saline sonified 95 % of control

CCN(CC)C(=O)C1C2C=CC(C2)C1C(=O)N(CC)CC (stereo not drawn)
inactive: [4] 98 % of control | [5] 98 % of control

Nc1ncc(CCCCc2ccccc2)c(=O)[nH]1
inactive: [6] 96 % of control | [7] 93 % of control | [8] 98 % of control

O=C(c1ccccc1)c1ccn[nH]1
inactive: [9] 106 % of control | [10] 103 % of control | [11] 108 % of control

CSc1ccc(OC(=O)Oc2ccc(SC)cc2)cc1
inactive: [12] 97 % of control | [13] 95 % of control | [14] 92 % of control

O=C(/C=C(\CBr)c1ccc(-c2ccccc2)cc1)c1ccccc1
inactive: dose: 50.0 mg/kg/injection, schedule: Q01DX001 (ip), vehicle: saline with Tween-80 92 % of control | [6] 87 % of control and 89 % of control | [7] 91 % of control | [8] 94 % of control

O=c1[nH]c2ccccc2n1C1OC(CO)C(O)C1O (stereo not drawn)
inactive: dose: 100.0 mg/kg/injection, schedule: Q01DX001 (ip), vehicle: saline 98 % of control | dose: 200.0 mg/kg/injection, schedule: Q01DX001 (ip), vehicle: saline 93 % of control | dose: 400.0 mg/kg/injection, schedule: Q01DX001 (ip), vehicle: saline 100 % of control

Cc1cn(C2CCCCC2)c(=O)[nH]c1=O
inactive: dose: 25.0 mg/kg/injection, schedule: Q01DX Z (ip), vehicle: methylcellulose (MC) 89 % of control | dose: 50.0 mg/kg/injection, schedule: Q01DX Z (ip), vehicle: methylcellulose (MC) 92 % of control

CCOCCOCCOC(C)Oc1ccc(C(=O)OC)cc1 (stereo not drawn)
inactive: [15] 99 % of control | [16] 96 % of control | [17] 89 % of control

CSc1nnc2sc(=S)[nH]n12
inactive: [12] 105 % of control | [13] 90 % of control | [14] 94 % of control

Cc1ccc(OCCC(=O)O)cc1
inactive: [15] 108 % of control | [16] 101 % of control | [17] 108 % of control

COCCOCC1CO1 (stereo not drawn)
inactive: [1] 100 % of control | [2] 105 % of control | [3] 100 % of control

CC1(C)CC(=O)CC(=C2C(=O)NC(=O)NC2=O)C1
inactive: [12] 89 % of control | dose: 100.0 mg/kg/injection, schedule: Q01DX002 (ip), vehicle: saline with Tween-80 92 % of control | dose: 100.0 mg/kg/injection, schedule: Q04DX002 (ip), vehicle: saline with Tween-80 103 % of control | [13] 92 % of control | dose: 200.0 mg/kg/injection, schedule: Q01DX002 (ip), vehicle: saline with Tween-80 98 % of control | dose: 200.0 mg/kg/injection, schedule: Q04DX002 (ip), vehicle: saline with Tween-80 111 % of control | [14] 87 % of control | dose: 400.0 mg/kg/injection, schedule: Q01DX002 (ip), vehicle: saline with Tween-80 95 % of control | dose: 400.0 mg/kg/injection, schedule: Q04DX002 (ip), vehicle: saline with Tween-80 100 % of control

COC1OC(CBr)C(OC(=O)c2ccccc2)C(OC(=O)c2ccccc2)C1OC(=O)c1ccccc1 (stereo not drawn)
inactive: dose: 100.0 mg/kg/injection, schedule: Q04DX002 (ip), vehicle: Klucel (hydroxypropylcellulose) (HPC) 101 % of control | dose: 200.0 mg/kg/injection, schedule: Q04DX002 (ip), vehicle: Klucel (hydroxypropylcellulose) (HPC) 96 % of control | dose: 400.0 mg/kg/injection, schedule: Q04DX002 (ip), vehicle: Klucel (hydroxypropylcellulose) (HPC) 90 % of control

CC(C)(C(=O)[O-])C(=O)O.[Co+3].[NH2-].[NH2-].[NH2-].[NH2-].[NH2-].[O-][Cl+3]([O-])([O-])O
inactive: [15] 92 % of control | [16] 95 % of control | [17] 106 % of control

O=C(NC/C(Br)=C/Br)Oc1cccc2c1CCCC2
inactive: dose: 100.0 mg/kg/injection, schedule: Q04DX002 (ip), vehicle: other 94 % of control | dose: 200.0 mg/kg/injection, schedule: Q04DX002 (ip), vehicle: other 94 % of control | dose: 400.0 mg/kg/injection, schedule: Q04DX002 (ip), vehicle: other 91 % of control

CC1(C)C2CCC1(CS(=O)(=O)Cl)C(=O)C2 (stereo not drawn)
inactive: dose: 50.0 mg/kg/injection, schedule: Q01DX001 (ip), vehicle: carboxymethylcellulose (CMC) 100 % of control | [12] 97 % of control | [13] 97 % of control

COC(=O)CCCCCC(O)C1CCC2OC(=O)CC21C (stereo not drawn)
inactive: dose: 100.0 mg/kg/injection, schedule: Q01DX009 (ip), vehicle: saline with Tween-80 95 % of control | dose: 100.0 mg/kg/injection, schedule: Q04DX003 (ip), vehicle: Klucel (hydroxypropylcellulose) (HPC) 94 % of control | dose: 200.0 mg/kg/injection, schedule: Q01DX009 (ip), vehicle: saline with Tween-80 95 % of control | dose: 200.0 mg/kg/injection, schedule: Q04DX003 (ip), vehicle: Klucel (hydroxypropylcellulose) (HPC) 100 % of control | dose: 400.0 mg/kg/injection, schedule: Q01DX009 (ip), vehicle: saline with Tween-80 91 % of control | dose: 400.0 mg/kg/injection, schedule: Q04DX003 (ip), vehicle: Klucel (hydroxypropylcellulose) (HPC) 93 % of control

Cc1c(Cl)cc(Cl)c(N)c1Cl
inactive: [4] 100 % of control | [5] 98 % of control | dose: 400.0 mg/kg/injection, schedule: Q04DX003 (ip), vehicle: saline with Tween-80 96 % of control

CC1(c2ccc(N(CCCl)CCCl)cc2)NC(=O)NC1=O (stereo not drawn)
inactive: dose: 12.5 mg/kg/injection, schedule: Q04DX003 (ip), vehicle: saline 98 % of control | dose: 25.0 mg/kg/injection, schedule: Q04DX003 (ip), vehicle: saline 103 % of control | dose: 50.0 mg/kg/injection, schedule: Q04DX003 (ip), vehicle: saline 103 % of control | dose: 100.0 mg/kg/injection, schedule: Q04DX003 (ip), vehicle: saline 113 % of control | dose: 200.0 mg/kg/injection, schedule: Q04DX003 (ip), vehicle: saline 121 % of control

CN(C)c1ccc(/C=C/c2ccc3ccccc3n2)cc1
inactive: [9] 100 % of control | dose: 100.0 mg/kg/injection, schedule: Q01DX009 (ip), vehicle: Klucel (hydroxypropylcellulose) (HPC) 103 % of control | [10] 97 % of control | dose: 200.0 mg/kg/injection, schedule: Q01DX009 (ip), vehicle: Klucel (hydroxypropylcellulose) (HPC) 100 % of control | [11] 101 % of control | dose: 400.0 mg/kg/injection, schedule: Q01DX009 (ip), vehicle: Klucel (hydroxypropylcellulose) (HPC) 95 % of control

NC(=O)NC(=O)c1ccccc1
inactive: [1] 96 % of control | [2] 101 % of control | [3] 106 % of control

CN1CCC(OC(=O)C(F)(c2ccccc2)c2ccccc2)CC1
inactive: dose: 20.0 mg/kg/injection, schedule: Q01DX001 (ip), vehicle: saline 98 % of control
